Measured values as given in patent US9795608B2, “Protein kinase inhibitors” (PHARMASCIENCE, INC., priority 2012, dated 2017).

Legend:
[1] = target: histidine tagged recombinant human full-length Bruton Agammaglobulinemia Tyrosine Kinase (Btk) (Homo sapiens (Human), UniProt Q06187); test: Btk Kinase Inhibition Assay (fluorescence polarization, KinEASE FP Fluorescein Green); format: biochemical; conditions: 10 μM ATP, 250 μM substrate, 60 minutes room temperature; Ki from IC50 by Cheng-Prusoff
Protocol: Kinase Binding Btk Kinase Inhibition Assay
Fluorescence polarization-based kinase assays were performed in 384 well-plate format using histidine tagged recombinant human full-length Bruton Agammaglobulinemia Tyrosine Kinase (Btk) and a modified protocol of the KinEASE™ FP Fluorescein Green Assay supplied from Millipore. Kinase reaction were performed at room temperature for 60 minutes in presence of 250 μM substrate, 10 μM ATP and variable test article concentrations. The reaction was stopped with EDTA/kinease detection reagents and the polarization measured on a Tecan 500 instrument. From the dose-response curve obtained, the IC50 was calculated using Graph Pad Prisms® using a non linear fit curve. The Km for ATP on each enzyme was experimentally determined and the Ki values calculated using the Cheng-Prusoff equation (see: Cheng Y, Prusoff W H. (1973) Relationship between the inhibition constant (K1) and the concentration of inhibitor which causes 50 percent inhibition (I50) of an enzymatic reaction”. Biochem Pharmacol 22 (23): 3099-108).

Splenocytes = test: Splenic Cell Proliferation Assay (anti-IgM stimulated B cell proliferation, Cell Titer-Glo); format: cell-based; conditions: Splenocyte; CD1 mouse splenocytes, 2.5 ug/ml anti-IgM F(ab')2, 72 h; read-out: EC50 (nM), Inhibition of splenic cell proliferation
Protocol: Splenic Cell Proliferation Assay
Splenocytes were obtained from 6 week old male CD1 mice (Charles River Laboratories Inc.). Mouse spleens were manually disrupted in PBS and filtered using a 70 um cell strainer followed by ammonium chloride red blood cell lysis. Cells were washed, resuspended in Splenocyte Medium (HyClone RPMI supplemented with 10% heat-inactivated FBS, 0.5× non-essential amino acids, 10 mM HEPES, 50 uM beta mercaptoethanol) and incubated at 37° C., 5% CO2 for 2 h to remove adherent cells. Suspension cells were seeded in 96 well plates at 50,000 cells per well and incubated at 37° C., 5% CO2 for 1 h. Splenocytes were pre-treated in triplicate with 10,000 nM curves of Formula 1 compounds for 1 h, followed by stimulation of B cell proliferation with 2.5 ug/ml anti-IgM F(ab′)2 (Jackson ImmunoResearch) for 72 h. Cell proliferation was measured by Cell Titer-Glo Luminescent Assay (Promega). EC50 values (50% proliferation in the presence of compound as compared to vehicle treated controls) were calculated from dose response compound curves using GraphPad Prism Software.

Balb/c mice = test: Mouse Arthus; format: in vivo; conditions: delivered orally at 30 mg/kg, female Balb/c mice
Protocol: Mouse Arthus studies were conducted as reported in Braselmann S, Taylor V, Zhao H, Wang S, Sylvain C, Baluom M, Qu K, Herlaar E, Lau A, Young C, Wong B R, Lovell S, Sun T, Park G, Argade A, Jurcevic S, Pine P, Singh R, Grossbard E B, Payan D G, Masuda E S: R406 an orally available spleen tyrosine kinase inhibitor blocks fc receptor signaling and reduces immune-complex mediated inflammation. J Pharmacol Exp Ther, 2006, 319:998-1008.
In summary, female Balb/c mice (6-7 weeks on arrival) were habituated to the animal facility for at least 4 days. On the day of the experiment, animals were pre-treated (t=minus 1 h) with compound or vehicle alone by gavage (PO). At t=0, animals were injected intravenously (IV; 0.1 mL/mouse) with saline containing chicken ovalbumin and Evan's blue (10 mg/mL of each). Ten minutes later (t=10 min), animals were anesthesized with isoflurane, the dorsal surface was shaved and rabbit anti-chicken ovalbumin antibody was then injected intradermally at one site on the right side of the animal (25 μg in 30 μL). […]
The animals were then returned to their home cage and skin punches (8 mm) were collected from each injection site four hours later. […] The amount of Evan's blue in the formamide solution was then assessed by spectrophotometry (630 nm) as a measure of serum extravasation into the dermis.

histidine tagged recombinant human full-length Bruton Agammaglobulinemia Tyrosine Kinase (Btk), sequence (Q06187 whole entry): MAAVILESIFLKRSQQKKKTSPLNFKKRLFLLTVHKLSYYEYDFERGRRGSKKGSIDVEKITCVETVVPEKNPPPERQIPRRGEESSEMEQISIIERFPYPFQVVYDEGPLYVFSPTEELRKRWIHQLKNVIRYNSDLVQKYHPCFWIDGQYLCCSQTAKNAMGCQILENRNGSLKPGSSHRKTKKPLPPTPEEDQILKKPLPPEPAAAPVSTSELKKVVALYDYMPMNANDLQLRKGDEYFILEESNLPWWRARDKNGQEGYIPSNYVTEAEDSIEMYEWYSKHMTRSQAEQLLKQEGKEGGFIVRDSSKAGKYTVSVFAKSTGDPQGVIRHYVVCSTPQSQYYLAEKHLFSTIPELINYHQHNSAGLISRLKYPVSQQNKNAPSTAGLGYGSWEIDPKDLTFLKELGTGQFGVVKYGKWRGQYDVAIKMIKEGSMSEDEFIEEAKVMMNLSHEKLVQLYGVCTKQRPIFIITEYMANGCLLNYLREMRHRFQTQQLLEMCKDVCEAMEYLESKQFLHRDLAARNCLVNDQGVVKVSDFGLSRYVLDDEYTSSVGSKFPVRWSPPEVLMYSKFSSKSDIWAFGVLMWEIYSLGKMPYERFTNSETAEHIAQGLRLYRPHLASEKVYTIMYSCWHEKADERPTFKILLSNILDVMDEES

| SMILES | Ki [1] [nM] | EC50 (Splenocytes) [nM] | efficacy in mouse Arthus (Evan's blue serum extravasation into the dermis) (Balb/c mice) |
| --- | --- | --- | --- |
| Nc1ncnc2c(C3CCCC3)nn(-c3ccc(Oc4cccc(OCc5cncs5)c4)cc3)c12 [Compound 1] | < 100 | < 100 | – |
| Cc1ncc(COc2cccc(Oc3ccc(-n4nc(C5CCCC5)c5ncnc(N)c54)cc3)c2)s1 [Compound 2] | < 100 | < 100 | – |
| Cc1ncc(COc2cc(F)cc(Oc3ccc(-n4nc(C5CCOCC5)c5ncnc(N)c54)cc3)c2)s1 [Compound 3] | < 100 | < 100 | – |
| Cn1cncc1COc1cc(F)cc(Oc2ccc(-n3nc(C4CCOCC4)c4ncnc(N)c43)cc2)c1 [Compound 4] | < 100 | < 100 | – |
| Cc1ncc(COc2cc(F)cc(Oc3ccc(-n4nc(C5CCOCC5)c5ncnc(N)c54)cc3)c2)o1 [Compound 5] | < 100 | < 100 | – |
| Cc1ccc(COc2cc(F)cc(Oc3ccc(-n4nc(C5CCCC5)c5ncnc(N)c54)cc3)c2)cn1 [Compound 6] | < 100 | < 100 | – |
| Cc1ncc(COc2cc(F)cc(Oc3ccc(-n4nc(C5CCCC5)c5ncnc(N)c54)cc3)c2)s1 [Compound 7] | < 100 | < 100 | – |
| Cc1ncc(COc2cc(F)cc(Oc3ccc(-n4nc(C5CCCC5)c5ncnc(N)c54)cc3)c2)cn1 [Compound 8] | < 100 | < 100 | – |
| Cc1ncc(COc2cc(F)cc(Oc3ccc(-n4nc(C(C)C)c5ncnc(N)c54)cc3)c2)s1 [Compound 9] | < 100 | < 100 | demonstrated efficacy |
| Cc1ncc(COc2cc(F)cc(Oc3ccc(-n4nc(C(C)C)c5ncnc(N)c54)cc3)c2)cn1 [Compound 10] | < 100 | < 100 | demonstrated efficacy |
| Cc1ccc(COc2cc(F)cc(Oc3ccc(-n4nc(C(C)C)c5ncnc(N)c54)cc3)c2)cn1 [Compound 11] | < 100 | < 100 | – |
| CC(C)c1nn(-c2ccc(Oc3cc(F)cc(OCc4ccccc4)c3)cc2)c2c(N)ncnc12 [Compound 12] | < 100 | < 100 | – |
| Nc1ncnc2c(C3CCOCC3)nn(-c3ccc(Oc4cc(F)cc(OCc5ccccc5)c4)cc3)c12 [Compound 13] | < 100 | < 100 | – |
| Cc1ccc(COc2cc(F)cc(Oc3ccc(-n4nc(C5CCOCC5)c5ncnc(N)c54)cc3)c2)cn1 [Compound 14] | < 100 | < 100 | – |
| Cc1ncc(COc2cc(F)cc(Oc3ccc(-n4nc(C5CCOCC5)c5ncnc(N)c54)cc3)c2)cn1 [Compound 15] | < 100 | – | – |
